Measurements published in US20080207733A1, “Composition for the Treatment of Vitiligo” (priority 2003, published 2008).
Values joined by “and” are separate entries in the source; they are usually repeats but may differ in a detail not shown here. Equal entries are not always repeated.

Legend:
[1] = second part of Table 2
[2] = product to be used in the trial
[3] = toxicological, teratologic and clinical trials
[4] = system: patients suffering from vitiligo; assay: Clinical trial in humans, repigmentation in vitiligo
[5] = topical, 3 times a week, 6 months, Melagenina Plus-resistant patients

For `O=C(O)[C@@H]1CCCN1` [L-Proline], the “L-Proline concentration, Fresh” value ([1]; hydroalcoholic solution just prepared) was 1.01 mg/mL, the “L-Proline concentration, 12 months” value ([1]; hydroalcoholic solution, 12 months) was 1.00 mg/mL and the “L-Proline concentration, 24 months” value ([1]; hydroalcoholic solution, 24 months) was 1.00 mg/mL. For the same molecule, the “dermal and ophthalmic irritability” value [2] was “innocuousness”, the adverse reactions [3] was “No severe adverse reactions were reported” and the “reversibility of repigmentant effect once application is discontinued” value ([4]; human, in vivo) was “irreversible”. The “Effect Evaluation” value ([4]; per patient No. 1-21, 1.5 mg/mL hydroalcoholic solution at 80%, topical, 3 times a week, 6 months) was “Noteworthy (10×) and Poor (2×)”, the “increase of lesions or local or systemic side effect” value ([4]; topical, 3 times a week, 6 months) was “no increase of lesions or local or systemic side effect were reported in any of the cases” and the “patients that did not show response to the treatment” value [4, 5] was 2 patients of 22. For the same molecule, the “patients that showed noteworthy to moderate response” value [4, 5] was 18 patients, the “Spectrum determination, Fresh” value (200-205 nm, hydroalcoholic solution just prepared) was 0.051 UA and the “Spectrum determination, 12 months” value (200-205 nm, hydroalcoholic solution, 12 months) was 0.072UA. For the same molecule, the “Spectrum determination, 24 months” value (200-205 nm, hydroalcoholic solution, 24 months) was 0.071 UA and the “remains stable after preparing the solution” value (hydroalcoholic solution, spectrophotometric determinations and aminoacids analysis) was 2 years.
